Measured values as given in patent US20240199635A1, “TETRAHYDROTHIENO PYRIDINE DERIVATIVES AS DDRS INHIBITORS” (CHIESI FARMACEUTICI S.P.A., priority 2021, published 2024).
Read-outs that look alike come from different tables or passages of the source.

Legend:
DDR2 = DDR2 (Homo sapiens (Human), UniProt Q16832); test: DDR2 binding assay (LanthaScreen Europium Kinase Binding assay)
Experimental: (§1) DDR1 and DDR2 binding assays were performed using Life Technologies LanthaScreen™ Europium Kinase Binding assay. The compounds were incubated with 5 nM DDR1 (Carna Biosciences) or 5 nM DDR2 (Life Technologies) for 1 hour at room temperature in white 384-well OptiPlate (PerkinElmer), containing 20 nM or 10 nM Kinase Tracer 178 respectively and 2 nM Europium labelled anti-GST antibody (Life Technologies) in assay buffer (50 mM HEPES pH 7.5, 10 mM MgCl2, 1 mM EGTA and 0.01% BRIJ35).
(§2) The ratio of fluorescence emission 665 nm/615 nm after excitation at 340 nm was obtained using the Tecan Spark 20M plate reader. IC50 values were determined in GraphPad Prism 7.0 software, using 4 parameter model: log(inhibitor) vs. response. IC50 values were converted in Ki using the Cheng-Prusoff equation (Ki=IC50/(1+[Tracer]/Kd).

DDR1 [1] = target: T1, DDR1 (Homo sapiens (Human), UniProt Q08345); test: DDR1 binding assay (LanthaScreen Europium Kinase Binding assay)
T1 sequence (Q08345 19-913): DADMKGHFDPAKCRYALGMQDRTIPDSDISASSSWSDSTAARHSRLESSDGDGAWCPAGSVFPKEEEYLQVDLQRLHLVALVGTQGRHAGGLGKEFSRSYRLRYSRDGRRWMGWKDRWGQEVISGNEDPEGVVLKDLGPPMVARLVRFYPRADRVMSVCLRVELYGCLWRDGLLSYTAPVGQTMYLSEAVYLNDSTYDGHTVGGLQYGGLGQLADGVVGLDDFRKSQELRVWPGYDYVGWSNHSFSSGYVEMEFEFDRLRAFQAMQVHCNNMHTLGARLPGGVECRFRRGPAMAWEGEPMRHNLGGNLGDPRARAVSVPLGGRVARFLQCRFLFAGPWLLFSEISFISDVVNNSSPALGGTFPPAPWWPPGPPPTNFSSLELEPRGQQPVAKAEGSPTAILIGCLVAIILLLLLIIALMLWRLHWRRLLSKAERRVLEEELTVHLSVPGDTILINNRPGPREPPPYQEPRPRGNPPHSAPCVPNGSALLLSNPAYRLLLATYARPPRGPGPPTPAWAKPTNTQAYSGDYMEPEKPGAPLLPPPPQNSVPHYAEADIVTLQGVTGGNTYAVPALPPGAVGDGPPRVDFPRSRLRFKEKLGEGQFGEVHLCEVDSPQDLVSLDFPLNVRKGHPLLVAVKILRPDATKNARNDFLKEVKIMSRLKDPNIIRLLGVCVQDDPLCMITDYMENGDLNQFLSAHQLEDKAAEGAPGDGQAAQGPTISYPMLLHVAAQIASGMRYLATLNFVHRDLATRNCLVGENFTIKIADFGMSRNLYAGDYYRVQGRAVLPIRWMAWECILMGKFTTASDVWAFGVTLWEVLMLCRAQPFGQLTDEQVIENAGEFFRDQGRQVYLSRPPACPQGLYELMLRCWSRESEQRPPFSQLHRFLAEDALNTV
Experimental: as §1, §2

DDR1 [2] = target: T1, DDR1; test: DDR1 cell based assay (PathHunter U2OS DDR1 assay); settings: U2OS-DDR1 cells, Type II Collagen stimulation, potency class
Experimental: The inhibition of DDR1 receptor activation by compounds was evaluated by PathHunter® U2OS DDR1 assay (Eurofins DiscoverX), according to the manufacturer's instructions. Briefly, U2OS-DDR1 cells were seeded in white 384-well plates at a density of 5000 cells/well and incubated for 2 hours at 37° C. and 5% CO2. Cells were then treated with compounds at different concentrations and incubated for 30 minutes, before stimulation with bovine Type II Collagen 20 μg/ml and incubation overnight at 37° C. and 5% CO2. PathHunter Detection Reagents were prepared according to the protocol provided by DiscoverX and 20 μl/well of this mix were added to each well. After incubating the plates for 1 hour at room temperature in the dark, luminescence signal was acquired with a plate reader. Raw data were normalized to vehicle control (0% for normalization) and positive control (100% for normalization; cells treated with 20 μg/ml collagen II) and IC50 parameters were calculated in GraphPad Prism 8.0 software, using sigmoidal dose-response curve fitting with variable slope.

[3] = potency class, read-out: Ki DDR2
[4] = potency class, read-out: Ki DDR1

Chain of DDR2 (Q16832 22-855): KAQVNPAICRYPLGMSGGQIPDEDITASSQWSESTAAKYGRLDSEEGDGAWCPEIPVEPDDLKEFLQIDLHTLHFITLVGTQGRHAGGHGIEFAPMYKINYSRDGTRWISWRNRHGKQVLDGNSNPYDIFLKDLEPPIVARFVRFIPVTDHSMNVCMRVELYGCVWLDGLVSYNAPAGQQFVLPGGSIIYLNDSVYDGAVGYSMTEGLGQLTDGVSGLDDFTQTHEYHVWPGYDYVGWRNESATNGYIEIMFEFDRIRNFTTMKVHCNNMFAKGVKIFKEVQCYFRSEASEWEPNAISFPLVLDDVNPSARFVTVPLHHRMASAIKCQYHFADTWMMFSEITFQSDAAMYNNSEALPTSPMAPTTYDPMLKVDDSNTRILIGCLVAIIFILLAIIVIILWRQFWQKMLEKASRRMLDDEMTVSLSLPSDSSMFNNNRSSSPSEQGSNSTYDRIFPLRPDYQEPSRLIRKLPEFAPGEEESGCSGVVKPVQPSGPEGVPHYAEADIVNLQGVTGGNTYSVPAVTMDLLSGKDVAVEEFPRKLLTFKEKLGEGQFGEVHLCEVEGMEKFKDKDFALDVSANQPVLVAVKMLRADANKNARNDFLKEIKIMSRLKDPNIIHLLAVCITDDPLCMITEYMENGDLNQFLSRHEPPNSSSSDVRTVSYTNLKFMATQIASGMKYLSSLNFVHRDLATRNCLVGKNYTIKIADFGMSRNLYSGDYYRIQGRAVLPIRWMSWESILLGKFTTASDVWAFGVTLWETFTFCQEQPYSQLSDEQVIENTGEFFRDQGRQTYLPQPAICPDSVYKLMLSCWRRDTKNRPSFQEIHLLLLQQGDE

Ki (DDR2; [3]) [nM]	Ki (DDR1 [1]; [4]) [nM]	IC50 (DDR1 [2]) [nM]	Ki (DDR2; read-out: DDR2 Ki) [nM]	Ki (DDR1 [1]; read-out: DDR1 Ki) [nM]	Structure (SMILES)
< 25	< 25	< 25	–	–	CC(C)(c1cc(NC(=O)c2csc3c2CCN(Cc2cnc(N)nc2)C3)no1)C(F)(F)F [Example 62, 6-((2-aminopyrimidin-5-yl)methyl)-N-(5-(1,1,1-trifluoro-2-methylpropan-2-yl)isoxazol-3-yl)-4,5,6,7-tetrahydrothieno[2,3-c]pyridine-3-carboxamide]
< 25	< 25	50 to 80	–	–	Cc1nc(N)ncc1CN1CCc2c(C(=O)Nc3cc(F)cc(C(F)(F)F)c3)csc2C1 [Example 47, 6-((2-amino-4-methylpyrimidin-5-yl)methyl)-N-(3-fluoro-5-(trifluoromethyl)phenyl)-4,5,6,7-tetrahydrothieno[2,3-c]pyridine-3-carboxamide]
< 25	< 25	25 to 50	–	–	O=C(Nc1cccc(C(F)(F)F)c1)c1csc2c1CCN(Cc1cncc(Cl)c1)C2 [Example 20, 6-((5-chloropyridin-3-yl)methyl)-N-(3-(trifluoromethyl)phenyl)-4,5,6,7-tetrahydrothieno[2,3-c]pyridine-3-carboxamide]
< 25	< 25	50 to 80	–	–	O=C(Nc1cc(C(F)(F)F)ccc1F)c1csc2c1CCN(Cc1cncnc1)C2 [Example 11, N-(2-fluoro-5-(trifluoromethyl)phenyl)-6-(pyrimidin-5-ylmethyl)-4,5,6,7-tetrahydrothieno[2,3-c]pyridine-3-carboxamide]
< 25	< 25	50 to 80	–	–	O=C(Nc1cccc(OC(F)F)c1)c1csc2c1CCN(Cc1cncnc1)C2 [Example 13, N-(3-(difluoromethoxy)phenyl)-6-(pyrimidin-5-ylmethyl)-4,5,6,7-tetrahydrothieno[2,3-c]pyridine-3-carboxamide]
< 25	< 25	50 to 80	–	–	COCCNc1ncc(CN2CCc3c(C(=O)Nc4cc(F)cc(C(F)(F)F)c4)csc3C2)cn1 [Example 41, N-(3-fluoro-5-(trifluoromethyl)phenyl)-6-((2-((2-methoxyethyl)amino)pyrimidin-5-yl)methyl)-4,5,6,7-tetrahydrothieno[2,3-c]pyridine-3-carboxamide]
< 25	< 25	< 25	–	–	O=C(Nc1cc(F)cc(OC(F)(F)F)c1)c1csc2c1CCN(Cc1cncnc1)C2 [Example 7, N-(3-fluoro-5-(trifluoromethoxy)phenyl)-6-(pyrimidin-5-ylmethyl)-4,5,6,7-tetrahydrothieno[2,3-c]pyridine-3-carboxamide]
< 25	< 25	25 to 50	–	–	O=C(Nc1cncc(C(F)(F)F)c1)c1csc2c1CCN(Cc1cncc(F)c1)C2 [Example 33, 6-((5-fluoropyridin-3-yl)methyl)-N-(5-(trifluoromethyl)pyridin-3-yl)-4,5,6,7-tetrahydrothieno[2,3-c]pyridine-3-carboxamide]
< 25	< 25	25 to 50	–	–	CC(C)(c1cc(NC(=O)c2csc3c2CCN(Cc2cncnc2)C3)no1)C(F)(F)F [Example 6, 6-(pyrimidin-5-ylmethyl)-N-(5-(1,1,1-trifluoro-2-methylpropan-2-yl)isoxazol-3-yl)-4,5,6,7-tetrahydrothieno[2,3-c]pyridine-3-carboxamide]
< 25	< 25	< 25	–	–	Cn1cncc1C(=O)N1CCc2c(C(=O)Nc3cc(F)cc(C(F)(F)F)c3)csc2C1 [Example 49, N-(3-fluoro-5-(trifluoromethyl)phenyl)-6-(1-methyl-1H-imidazole-5-carbonyl)-4,5,6,7-tetrahydrothieno[2,3-c]pyridine-3-carboxamide]
< 25	< 25	25 to 50	–	–	O=C(Nc1cccc(C(F)(F)F)c1)c1csc2c1CCN(Cc1cccnc1)C2 [Example 25, 6-(pyridin-3-ylmethyl)-N-(3-(trifluoromethyl)phenyl)-4,5,6,7-tetrahydrothieno[2,3-c]pyridine-3-carboxamide]
< 25	< 25	25 to 50	–	–	O=C(Nc1cc(F)cc(C(F)(F)F)c1)c1csc2c1CCN(Cc1cnc(NC3COC3)nc1)C2 [Example 37, N-[3-fluoro-5-(trifluoromethyl)phenyl]-6-[[2-(oxetan-3-ylamino)pyrimidin-5-yl]methyl]-5,7-dihydro-4H-thieno[2,3-c]pyridine-3-carboxamide]
< 25	< 25	50 to 80	–	–	O=C(Nc1cccc(C(F)(F)F)c1)c1csc2c1CCN(Cc1cncc(N3CCS(=O)(=O)CC3)c1)C2 [Example 30, 6-((5-(1,1-dioxidothiomorpholino)pyridin-3-yl)methyl)-N-(3-(trifluoromethyl)phenyl)-4,5,6,7-tetrahydrothieno[2,3-c]pyridine-3-carboxamide]
< 25	< 25	25 to 50	–	–	O=C(Nc1cccc(C(F)(F)F)c1)c1csc2c1CCN(Cc1cncc(C(F)(F)F)c1)C2 [Example 23, N-(3-(trifluoromethyl)phenyl)-6-((5-(trifluoromethyl)pyridin-3-yl)methyl)-4,5,6,7-tetrahydrothieno[2,3-c]pyridine-3-carboxamide]
< 25	< 25	< 25	–	–	Nc1nccnc1CN1CCc2c(C(=O)Nc3cncc(C(F)(F)F)c3)csc2C1 [Example 36, 6-((3-aminopyrazin-2-yl)methyl)-N-(5-(trifluoromethyl)pyridin-3-yl)-4,5,6,7-tetrahydrothieno[2,3-c]pyridine-3-carboxamide]
< 25	< 25	50 to 80	–	–	O=C(Nc1ccc(F)c(C(F)(F)F)c1)c1csc2c1CCN(Cc1cncnc1)C2 [Example 8, N-(4-fluoro-3-(trifluoromethyl)phenyl)-6-(pyrimidin-5-ylmethyl)-4,5,6,7-tetrahydrothieno[2,3-c]pyridine-3-carboxamide]
< 25	< 25	25 to 50	–	–	CN(C)[C@@H]1CCN(Cc2cc(NC(=O)c3csc4c3CCN(Cc3cncnc3OC3CC3)C4)cc(C(F)(F)F)c2)C1 [Example 53, (R)-6-((4-cyclopropoxypyrimidin-5-yl)methyl)-N-(3-((3-(dimethylamino)pyrrolidin-1-yl)methyl)-5-(trifluoromethyl)phenyl)-4,5,6,7-tetrahydrothieno[2,3-c]pyridine-3-carboxamide]
< 25	< 25	25 to 50	–	–	CN(C)[C@@H]1CCN(Cc2cc(NC(=O)c3csc4c3CCN(Cc3cncc(-c5cnn(C)c5)c3)C4)cc(C(F)(F)F)c2)C1 [Example 54, (R)-N-(3-((3-(dimethylamino)pyrrolidin-1-yl)methyl)-5-(trifluoromethyl)phenyl)-6-((5-(1-methyl-1H-pyrazol-4-yl)pyridin-3-yl)methyl)-4,5,6,7-tetrahydrothieno[2,3-c]pyridine-3-carboxamide]
< 25	< 25	25 to 50	–	–	CN(C)Cc1cc(NC(=O)c2csc3c2CCN(Cc2cnc(N)nc2)C3)cc(C(F)(F)F)c1 [Example 55, 6-((2-aminopyrimidin-5-yl)methyl)-N-(3-((dimethylamino)methyl)-5-(trifluoromethyl)phenyl)-4,5,6,7-tetrahydrothieno[2,3-c]pyridine-3-carboxamide]
< 25	< 25	25 to 50	–	–	COc1cncc(CN2CCc3c(C(=O)Nc4cc(C(C)(C)C)no4)csc3C2)c1 [Example 65, N-(3-(tert-butyl)isoxazol-5-yl)-6-((5-methoxypyridin-3-yl)methyl)-4,5,6,7-tetrahydrothieno[2,3-c]pyridine-3-carboxamide]
< 25	< 25	50 to 80	–	–	COc1ncncc1CN1CCc2c(C(=O)Nc3cc(CN4CC[C@@H](N(C)C)C4)cc(C(F)(F)F)c3)csc2C1 [Example 52, (R)-N-(3-((3-(dimethylamino)pyrrolidin-1-yl)methyl)-5-(trifluoromethyl)phenyl)-6-((4-methoxypyrimidin-5-yl)methyl)-4,5,6,7-tetrahydrothieno[2,3-c]pyridine-3-carboxamide]
–	–	–	50000	29000	Cc1cn(-c2cc(NC(=O)c3cc4c(s3)CN(c3cncnc3)CC4)cc(C(F)(F)F)c2)cn1 [Example C2]
–	–	–	172	238	CN1CCN(Cc2cc(NC(=O)c3csc4c3CCN(c3cncnc3)C4)cc(C(F)(F)F)c2)CC1 [Example C1, N-(3-((4-methylpiperazin-1-yl)methyl)-5-(trifluoromethyl)phenyl)-6-(pyrimidin-5-yl)-4,5,6,7-tetrahydrothieno[2,3-c]pyridine-3-carboxamide]
